Where “and” joins values, the source holds several entries; their conditions need not be identical. Identical values can stand only once. Like-named read-outs stand apart in the source and are kept apart here.
Legend:
[1] = tested on: ATCC strain 43300 Staphylococcus aureus; assay: MRSA survival in MSM, DMSO and oxacillin, 48 hours (Example 2)
Procedure: All concentrations were plated out to the 10^−7 dilutions to ascertain cfu/ml.
Material was calculated on a 10 ml volume. […] Sterile DMSO was added to appropriate tubes. Sterile oxacillin was added to appropriate tubes at 300 microliters from a 30 mg/10 ml concentration giving it a final concentration of 6 μg/ml. Control conditions were Lactose Broth inoculated with ATCC strain 43300 Staphylococcus aureus with and without 6 μg/ml oxacillin, as well as uninoculated negative controls to show no signs of contamination.
Appropriate tubes were inoculated at a dilution of ATCC strain 43300 Staphylococcus aureus giving a final concentration of colony forming units of 3.15×10^7/ml (Log=7.49). The tubes were incubated at 25° C. and mixed periodically. Plating was done at 48 hours. […] They were serial diluted down to 10^−7 with 1 ml placed in a sterile petri dish at each dilution point. Then 20 mls of TSA was added to each dilution and swirled and allowed to solidify. All dilutions were placed in a 35° C. incubator for 24 hours. Plates were counted and colony counts changed into log format. A positive and negative control was ascertained.

[2] = tested on: ATCC strain 43300 Staphylococcus aureus; assay: MRSA survival in MSM and oxacillin, simulated course of treatment (Example 3); details: for survival (Log cfu/ml): 6 μg/ml oxacillin added daily + MSM (% in label)
Procedure: After 24 hours, another 6 μg/ml oxacillin was added to the incubations, bringing the total amount of oxacillin added to 12 μg/ml. […] This experimental paradigm simulates the repeated application of antibiotic that a subject would receive over a course of treatment.
USP<51> Antimicrobial Effectiveness protocol was used as the template experimental paradigm. […] All concentrations were plated out to the 10^−7 dilutions to ascertain cfu/ml. […] This concentration is the industry standard for determining MRSA resistance in clinical applications. An additional 6 μg/ml oxacillin was added daily.
Material was calculated on a 10 ml volume. Sterile oxacillin was added to each experimental condition daily at 300 μl from a 30 mg/10 ml concentration giving it a final concentration of 6 μg/ml.
All tubes were inoculated at a dilution of MRSA giving a final concentration of colony forming units of 9.14×10^5/ml (Log=5.96). The tubes were incubated at 25° C. and mixed periodically. Plating was done at 48 hours and 7 days. […] These were serial diluted down to 10^−7 with 1 ml placed in a sterile petri dish at each dilution point. 20 mls of TSA was added to each dilution and swirled and allowed to solidify. All dilutions were placed in a 35° C. incubator for 24 hours. Plates were counted and colony counts changed into log format. A positive and negative control was ascertained.

[3] = tested on: ATCC strain 43300 Staphylococcus aureus; assay: MSM alone, MRSA survival (Example 1); details: 5-16% MSM alone, no antibiotic, 24 or 48 hour
Procedure: USP<51> Antimicrobial Effectiveness protocol was used as the template experimental paradigm. […] All concentrations were plated out to the 10^−7 dilutions to ascertain cfu/ml.
Material was calculated on a 10 ml volume.
All tubes were inoculated with a dilution of MRSA giving a final level of colony forming units of 2.0×10^5/ml (Log=5.23). The tubes were incubated at 25° C. and mixed periodically. Plating was done at 24 and 48 hours. Each condition was plated by diluting 1 ml of growth material into 9 ml of MLB diluent broth. This mixture was serial diluted down to 10^−7, and 1 ml placed in a sterile petri dish at each dilution point. 20 mls of TSA was added to each dilution, swirled and allowed to solidify. All dilutions were placed in a 35° C. incubator for 24 hours. Bacterial colonies on each plate were counted and colony counts changed into log format. A positive and negative control was ascertained.

[4] = tested on: ATCC strain 43300 Staphylococcus aureus; details: for survival (cfu/ml): 12 μg/ml oxacillin (re-added every 24 hours) + MSM (% in label), three columns = triplicate platings, inoculum 3.3×10^5/ml
Procedure: Additional antibiotic was added every 24 hours. The growth periods tested were 24 (see FIG. 4), 48, 72, 96 and 120 hours.
USP<51> Antimicrobial Effectiveness protocol was used as the template experimental paradigm. […] All concentrations were plated out to the 10^−7 dilutions to ascertain cfu/ml. […] Additional antibiotic was added at the initial concentration every 24 hours.
ATCC strain 43300 Staphylococcus aureus was streaked out for isolations. An isolated colony was chosen, streaked again and incubated. Isolate was chosen and then diluted to a McFarland standard of one. The estimated value was then taken to inoculate tubes containing growth media and 12, 30 or 60 μg/ml oxacillin with approximately 10^5 cfu/ml. These tubes were incubated and plated for counting cfu. A clone having no observed log reduction in cfu was selected for the rest of the experiment.
Material was calculated on a 10 ml volume. Sterile oxacillin was added to each experimental condition to a final concentration of 12, 30 or 60 μg/ml antibiotic.
All tubes were then inoculated with a dilution of the selected ATCC strain 43300 Staphylococcus aureus clone giving a final level of colony forming units of 3.3×10^5/ml (log=5.52). The tubes were incubated at 25° C. and mixed periodically. Antibiotic was re-inoculated every 24 hours at the initial concentration to maintain pressure on the organism. Plating was done at 24, 48, 72, and 120 hours. Each condition was plated by diluting 1 ml of growth material into 9 ml of MLB diluent broth. […] This mixture was serial diluted down to 10^−7 with 1 ml placed in triplicate in a sterile petri dish at each dilution point. 20 mls of TSA was added to each dilution, swirled and allowed to solidify. All dilutions were placed in a 35° C. incubator for 24 to 72 hours. Bacterial colonies on each plate were counted and the average taken then changed into log format. Any cfu/ml observed greater than 3.3×10^5 (log=5.5) were recorded as >3.3×10^5.
The tube was then taken out of the experiment and tested for ATCC strain 43300 Staphylococcus growth. The tube was spun down at 5000 rpm for 10 minutes. The supernatant was then decanted into 90 mls of Mueller-Hinton broth with 6 μg/ml oxacillin. This is for enrichment and the recovery of any MRSA cells that may be present whether healthy or stressed. The pellet had 10 mls Mueller-Hinton broth with 6 μg/ml oxacillin added to it to recover any cells that may be present. Both vessels were incubated at 35° C. for 48 hours followed by plating every 24 hours. Each vessel was plated at 10 dilutions to obtain a 1 cfu detection limit.

## CS(C)(=O)=O [MSM, Methylsulfonylmethane]
[1]; MA condition (6 μg/ml oxacillin + MSM)
  log reduction in cfu/ml: 2.0 log
[1]; MA condition, 10-16% MSM
  maximum log reduction in cfu/ml: 2.9 log
[1]; MDA condition (6 μg/ml oxacillin + MSM + 1% DMSO), listed as 9% MSM
  log reduction in cfu/ml: 1.6 log
[1]; MDA condition (6 μg/ml oxacillin + MSM + 1% DMSO), listed as 10-16% MSM
  log reduction in cfu/ml: 2.0 log
[2]; 48 hours, inoculum Log=5.96, listed as 5% MSM
  survival (Log cfu/ml): 7.0 Log cfu/ml
[2]; 48 hours, inoculum Log=5.96, listed as 8% MSM
  survival (Log cfu/ml): 4.0 Log cfu/ml
[2]; 48 hours, inoculum Log=5.96, listed as 10% MSM
  survival (Log cfu/ml): 4.6 Log cfu/ml
[2]; 48 hours, inoculum Log=5.96, listed as 12% MSM
  survival (Log cfu/ml): 3.8 Log cfu/ml
[2]; 48 hours, inoculum Log=5.96, listed as 13% MSM
  survival (Log cfu/ml): 3.8 Log cfu/ml
[2]; 48 hours, inoculum Log=5.96, listed as 14% MSM
  survival (Log cfu/ml): 4.0 Log cfu/ml
[2]; 48 hours, inoculum Log=5.96, listed as 15% MSM
  survival (Log cfu/ml): 4.1 Log cfu/ml
[2]; 48 hours, inoculum Log=5.96, listed as 16% MSM
  survival (Log cfu/ml): 5.3 Log cfu/ml
[2]; 7 days, listed as 5% MSM
  survival (Log cfu/ml): 7.9 Log cfu/ml
[2]; 7 days, listed as 8% MSM
  survival (Log cfu/ml): 7.6 Log cfu/ml
[2]; 7 days, listed as 10% MSM
  survival (Log cfu/ml): 7.2 Log cfu/ml
[2]; 7 days, listed as 12% MSM
  survival (Log cfu/ml): 7.1 Log cfu/ml
[2]; 7 days, listed as 13% MSM
  survival (Log cfu/ml): 7.2 Log cfu/ml
[2]; 7 days, listed as 14% MSM
  survival (Log cfu/ml): 7.0 Log cfu/ml
[2]; 7 days, listed as 15% MSM
  survival (Log cfu/ml): 6.9 Log cfu/ml
[2]; 7 days, listed as 16% MSM
  survival (Log cfu/ml): 1.0 Log cfu/ml
[2]; 6 μg/ml oxacillin added each day, day 7
  surviving bacteria: no surviving bacteria
[3]
  effect on survival: none of the concentrations of MSM tested had any effect on the survival
[4]; 24 hours, listed as 15% MSM
  survival (cfu/ml): 1.35 × 10^4 cfu/ml and 1.30 × 10^4 cfu/ml
[4]; 24 hours, listed as 16% MSM
  survival (cfu/ml): 7.6 × 10^3 cfu/ml and 7.4 × 10^3 cfu/ml
[4]; 12 μg/ml oxacillin + MSM (% in label), 24 hours, listed as 5% MSM
  survival, Average Log: 3.91 Log
[4]; 12 μg/ml oxacillin + MSM (% in label), 24 hours, listed as 6% MSM
  survival, Average Log: 3.92 Log
[4]; 12 μg/ml oxacillin + MSM (% in label), 24 hours, listed as 7% MSM
  survival, Average Log: 3.91 Log
[4]; 12 μg/ml oxacillin + MSM (% in label), 24 hours, listed as 8% MSM
  survival, Average Log: 3.82 Log
[4]; 12 μg/ml oxacillin + MSM (% in label), 24 hours, listed as 9% MSM
  survival, Average Log: 3.72 Log
[4]; 12 μg/ml oxacillin + MSM (% in label), 24 hours, listed as 10% MSM
  survival, Average Log: 3.76 Log
[4]; 12 μg/ml oxacillin + MSM (% in label), 24 hours, listed as 11% MSM
  survival, Average Log: 3.91 Log
[4]; 12 μg/ml oxacillin + MSM (% in label), 24 hours, listed as 12% MSM
  survival, Average Log: 3.85 Log
[4]; 12 μg/ml oxacillin + MSM (% in label), 24 hours, listed as 13% MSM
  survival, Average Log: 3.95 Log
[4]; 12 μg/ml oxacillin + MSM (% in label), 24 hours, listed as 14% MSM
  survival, Average Log: 4.00 Log
[4]; 12 μg/ml oxacillin + MSM (% in label), 24 hours, listed as 15% MSM
  survival, Average Log: 4.11 Log
[4]; 12 μg/ml oxacillin + MSM (% in label), 24 hours, listed as 16% MSM
  survival, Average Log: 3.88 Log
[4]; 12 μg/ml oxacillin + MSM (% in label), 48 hours, listed as 5% MSM
  survival, Average Log: 3.6 Log
[4]; 12 μg/ml oxacillin + MSM (% in label), 48 hours, listed as 6% MSM
  survival, Average Log: 3.2 Log
[4]; 12 μg/ml oxacillin + MSM (% in label), 48 hours, listed as 7% MSM
  survival, Average Log: 3.9 Log
[4]; 12 μg/ml oxacillin + MSM (% in label), 48 hours, listed as 8% MSM
  survival, Average Log: 3.7 Log
[4]; 12 μg/ml oxacillin + MSM (% in label), 48 hours, listed as 9% MSM
  survival, Average Log: 3.4 Log
[4]; 12 μg/ml oxacillin + MSM (% in label), 48 hours, listed as 10% MSM
  survival, Average Log: 2.7 Log
[4]; 12 μg/ml oxacillin + MSM (% in label), 48 hours, listed as 11% MSM
  survival, Average Log: 2.8 Log
[4]; 12 μg/ml oxacillin + MSM (% in label), 48 hours, listed as 12% MSM
  survival, Average Log: 2.8 Log
[4]; 12 μg/ml oxacillin + MSM (% in label), 48 hours, listed as 13% MSM
  survival, Average Log: 2.8 Log
[4]; 12 μg/ml oxacillin + MSM (% in label), 48 hours, listed as 14% MSM
  survival, Average Log: 1.0 Log
[4]; 12 μg/ml oxacillin + MSM (% in label), 48 hours, listed as 15% MSM
  survival, Average Log: 3.7 Log
[4]; 12 μg/ml oxacillin + MSM (% in label), 48 hours, listed as 16% MSM
  survival, Average Log: 3.7 Log
[4]; 12 μg/ml oxacillin + MSM (% in label), 72 hours, listed as 5% MSM
  survival, Average Log: 5.5 Log
[4]; 12 μg/ml oxacillin + MSM (% in label), 72 hours, listed as 6% MSM
  survival, Average Log: 5.5 Log
[4]; 12 μg/ml oxacillin + MSM (% in label), 72 hours, listed as 7% MSM
  survival, Average Log: 5.5 Log
[4]; 12 μg/ml oxacillin + MSM (% in label), 72 hours, listed as 8% MSM
  survival, Average Log: 5.5 Log
[4]; 12 μg/ml oxacillin + MSM (% in label), 72 hours, listed as 9% MSM
  survival, Average Log: 4.5 Log
[4]; 12 μg/ml oxacillin + MSM (% in label), 72 hours, listed as 10% MSM
  survival, Average Log: 4.0 Log
[4]; 12 μg/ml oxacillin + MSM (% in label), 72 hours, listed as 11% MSM
  survival, Average Log: 3.6 Log
[4]; 12 μg/ml oxacillin + MSM (% in label), 72 hours, listed as 12% MSM
  survival, Average Log: 3.1 Log
[4]; 12 μg/ml oxacillin + MSM (% in label), 72 hours, listed as 13% MSM
  survival, Average Log: 2.7 Log
[4]; 12 μg/ml oxacillin + MSM (% in label), 72 hours, listed as 14% MSM
  survival, Average Log: 2.0 Log
[4]; 12 μg/ml oxacillin + MSM (% in label), 72 hours, listed as 15% MSM
  survival, Average Log: 2.3 Log
[4]; 12 μg/ml oxacillin, 48 hours
  log reduction in the number of cfu/ml: 4.5 log
[4]; 12 μg/ml oxacillin, 72 hours
  log reduction in the number of cfu/ml: 4.5 log
[4]; 12 μg/ml oxacillin, MSM concentrations of 12%-16%, 72 hours
  log reduction in the number of cfu/ml: 1 log
[4]; 12 μg/ml oxacillin, all MSM concentrations, 24 hours
  average log reduction in the number of cfu/ml: 1.5 logs
[4]; 30 μg/ml and 60 μg/ml oxacillin, lower end of MSM concentrations, 24 hours
  average Log reduction in the number of cfu/ml: 3 log
[4]; 30 μg/ml oxacillin + MSM (% in label), 24 hours, listed as 5% MSM
  survival, Average Log: 2.51 Log
[4]; 30 μg/ml oxacillin + MSM (% in label), 24 hours, listed as 6% MSM
  survival, Average Log: 2.46 Log
[4]; 30 μg/ml oxacillin + MSM (% in label), 24 hours, listed as 7% MSM
  survival, Average Log: 2.98 Log

From patent publication US20130338130A1 (priority 2009, published 2013)
